How the values were obtained:
Type in all cases: functional
SH-SY5Y [1] = assay: Neuroprotective activity in human SH-SY5Y cells assessed as reduction in H2O2-induced cell damage by measuring cell viability level at 12.5 uM by MTT assay (reference value: 67.95%)
SH-SY5Y [2] = assay: Neuroprotective activity in human SH-SY5Y cells assessed as reduction in H2O2-induced apoptosis by measuring viable cells level at 12.5 uM by annexin V-FITC and propidium iodide staining based flow cytometry (reference value: 76.7%)
SH-SY5Y [3] = assay: Neuroprotective activity in human SH-SY5Y cells assessed as reduction in H2O2-induced apoptosis by measuring early apoptotic cells level at 12.5 uM by annexin V-FITC and propidium iodide staining based flow cytometry (reference value: 11.3%); set-up: scale not given: the % may be the effect or the level left
SH-SY5Y [4] = assay: Neuroprotective activity in human SH-SY5Y cells assessed as reduction in H2O2-induced apoptosis by measuring late apoptotic cells level at 12.5 uM by annexin V-FITC and propidium iodide staining based flow cytometry (reference value: 5.26%); set-up: scale not given: the % may be the effect or the level left
SH-SY5Y [5] = assay: Neuroprotective activity in human SH-SY5Y cells assessed as reduction in H2O2-induced apoptosis by measuring necrotic cells level at 12.5 uM by annexin V-FITC and propidium iodide staining based flow cytometry (reference value: 6.69%); set-up: scale not given: the % may be the effect or the level left
SH-SY5Y [6] = assay: Neuroprotective activity in human SH-SY5Y cells assessed as reduction in H2O2-induced cell damage by measuring cell viability level at 50 uM by MTT assay (reference value: 67.95%)

SMILES	Activity (SH-SY5Y [1])	Activity (SH-SY5Y [2])	Activity (SH-SY5Y [3])	Activity (SH-SY5Y [4])	Activity (SH-SY5Y [5])	Activity (SH-SY5Y [6])
CC1=C[C@@]2(O)OC(=O)C(C)=C2C[C@H]2[C@@H](C)CC[C@@]12O	75.64%	87.7%	4.25%	2.7%	5.37%	
CC1=C(C[C@@H]2/C(=C(/C)CO)CC[C@@H]2C)C(=O)OC1	79.94%	79.2%	5.41%	3.29%	12.1%	
CC1=C2CC[C@H](C)[C@@H]2C[C@H]2C(=O)[C@@H]1OC[C@@]2(O)CO	79.34%	87.7%	4.19%	2.67%	5.41%	
Cc1c(C)c2c(c(C)c1O)CCC(C)(C(=O)O)O2 (stereo unspecified) [TROLOX]						78.65%

— ChEMBL document CHEMBL4392878, “Guaiane-Type Sesquiterpenoids from the Roots of Daphne genkwa and Evaluation of Their Neuroprotective Effects” (2019)
